Assays:
syngeneic tumor models = assay: Syngeneic tumor models in mice, daily treatment; assay type: in vivo; details: multiple syngeneic tumor models
Protocol: (§1) Adenosine signaling via A2A receptor (A2AR) on immune cells suppresses anti-tumor immunity and limits the efficacy of immunotherapy, chemotherapy, CAR-T, and vaccines. […] In embodiments, CD73 expression, CD8 infiltration, TREG distribution, and gene expression signatures are evaluated in serial tumor biopsy specimens.

[1] = Phase 1/1b clinical trial, safety and tolerability (Step 1); assay type: in vivo, human; details: 48 patients treated in Step 1
Text: FIG. 5 is an illustration of an exemplary Phase 1/1B clinical trial design.
Expansion cohorts include renal cell and non-small cell lung cancer
FIG. 12 provides a summary of data regarding treatment-related adverse events.
as §1

[2] = tested on: non-small cell lung, melanoma, renal, triple negative breast, and other (bladder, prostate, head and neck, colorectal) tumors; assay: Phase 1/1b clinical trial, clinical activity / tumor regression; assay type: in vivo, human; details: single agent
Protocol: The waterfall plot includes all subjects from the clinical trial with available data, including all dosing levels and disease indications. CT scans of target lesions were performed prior to treatment and every 8 weeks post-treatment or at optimal time points. Target lesions were measured and the sum of longest dimensions (SLD) calculated. Subjects with regression of target tumor lesions are enriched for CD8 infiltration of tumors at baseline. […] The best change in SLD for each subject is shown in the waterfall plot colored by the percentage of CD8 infiltration in the center of the pre-treatment biopsy sample as measured by immunohistochemistry. […] A cutoff of 1% (rather than 4% for FIG. 1A) was used to classify subjects enriched for CD8 infiltration.
There were five prior regimens including TKIs, mTOR inhibitor and nivolumab. The patient ultimately failed each prior therapy.
as §1

[3] = tested on: peripheral T cell receptor repertoire; assay: Deep sequencing of TCRb in PBMCs, Morisita Index and clonality; assay type: in vivo, human; details: subjects with baseline peripheral blood clonality within normal healthy range (<0.2); PBMCs day 0 vs day 28 to 56
Protocol: FIGS. 3A-3C: Peripheral blood mononuclear cells (PBMCs) were collected at day 0 and between day 28 and 56. Deep sequencing of TCRb and Moristia and clonality calculations were performed by Adaptive Biotechnologies (Seattle, Wash., USA). T cell receptor (TCR) repertoire clonality was assessed.
Clonality is a measure of the dominance of specific T cell clones within a sample. It can range from 0-1, with 0 meaning each clone appears only once and 1 meaning the sample has only copies of a single clone. […] Clonality<0.2 is within the normal range, >0.2 means that a few clones dominate the sample. Clonality is conceptually the opposite of diversity. A clonality<0.2 is diverse because there a lot of different clones and the sample is not dominated by one or a few clone.
A Morisita Index score indicates the similarity between two samples. […] The Morisita Index can range from 0-1, with 0 meaning the samples are completely different (no shared clones) and a score of 1 meaning the samples are the same. In embodiments, a Morisita Index score>0.9 means very little change (e.g., within the range of sample to sample variation), while a Morisita Index score<0.9 means there was a change within the sample.

adenosine signaling = assay: Functional inhibition of adenosine signaling in cancer patients; assay type: in vivo, human
Protocol: as §1

## Cc1ccc(-c2nc(N)nc3c2nnn3Cc2cccc(COC3CCOC3)n2)o1 (stereo not shown) [CPI-444]
Syngeneic tumor models
  inhibition of tumor growth: dose-dependent inhibition of tumor growth
[1]
  Grade 3 or 4 treatment related adverse events: 1
  tolerability: well tolerated
[2]; including patients who previously failed anti-PD-1 therapy
  clinical activity: Evidence of clinical activity
[2]; nivolumab refractory renal cancer, five prior regimens including TKIs, mTOR inhibitor and nivolumab
  tumor response (FIG. 6, FIGS. 7A-7B): tumor regression
[3]
  Morisita Index (change in peripheral TCR repertoire): < 0.9
Adenosine signaling
  inhibition of adenosine signaling: functional inhibition of adenosine signaling

— US11040040B2, “Methods of treating cancer” (Corvus Pharmaceuticals, Inc., priority 2017, dated 2021)
